What was measured:
[1] = system: NAD(P)H oxidase subunit p47^phox; experiment: FSGS model: Western blot of cytosolic p47^phox in kidney; assay type: in vivo, BALB/c mice; details: FSGS mice, day 14 to day 21, vs control FSGS mice
Method: Experiments described herein were performed on 8-week-old female BALB/c mice. The FSGS mice were injected intravenously with a single dose of adriamycin (0.1 mg/10 g body weight). The mice were given Compound 1 six hours before adriamycin injection by gavage daily till sacrifice. BALB/c mice intraperitoneal injected with normal saline were used as normal controls, while ASLN mice given vehicle (corn oil) by gavage were used as disease controls. Mice were killed at day 7, 14, or 21 after disease induction, and spleen, renal cortical tissue, and blood samples collected and stored appropriately until analysis. All animal experiments were performed with the ethical approval of the Institutional Animal Care and Use Committee of The National Defense Medical Center, Taiwan and performed according to the ethical rules in the NIH Guide for the Care and Use of Laboratory Animals.
The preparation of cytoplasmic and nuclear proteins of renal tissues was extracted using the Nuclear Extract Kit (Active Motif, Tokyo, Japan) according to the manufacturer's instructions. Target proteins in the cytoplasmic and/or nuclear fractions of kidney tissue were measured by Western blot analysis using rabbit antibodies against mouse Nrf2, or p47^phox (Santa Cruz). […]

[2] = AcP-IgAN model: renal histopathology; assay type: in vivo, B cell-deficient mice; details: AcP-IgAN mice
Method: (§1) B cell-deficient mice (B6.129S2-Igh-6tm1Cgn/J) were obtained from the Academia Sinica (Professor John T. Kung, Institute of Molecular Biology), and maintained at the animal center of the National Defense Medical Center, Taipei, Taiwan. AcP-IgAN was induced in the mice by daily injection of purified IgA anti-phosphorylcholine antibodies and pneumococcal C-polysaccharide (PnC) as described previously (Chao, et al., Kidney Int. 70:283-297; 2006). All animal experiments were performed with the approval of the Institutional Animal Care and Use Committee of The National Defense Medical Center, Taiwan, and were consistent with the NIH Guide for the Care and Use of Laboratory Animals.
For renal histopathology, the tissues were fixed in 10% buffered formalin and embedded in paraffin, and then sections (4 μm) were prepared and stained with hematoxylin and eosin (H&E). The proportion of glomeruli showing proliferation, crescent formation, sclerosis, or peri-glomerular inflammation was counted in 50 randomly sampled glomeruli by light microscopy at the magnification of 400×.

TGF-β1 = experiment: AcP-IgAN model: renal TGF-β1 mRNA and protein; assay type: in vivo, B cell-deficient mice; details: AcP-IgAN mice
Method: as §1
For IHC, formalin fixed and paraffin embedded tissue sections or frozen sections were incubated with against IL-6 (R&D Systems, MN), MCP-1 (Santa Cruz, Calif.), F4/80 (monocytes/macrophages; Serotec, N.C.), collagen IV (Southern Biotech, AL), TGF-β1 (Santa Cruz), phopsho-NFκB p65 (Cell Signaling, MA), CD3 (pan-T cell; Serotec), CD4 (T helper cell; BioLegend, CA), CD8 (cytotoxic T cell), CD11b (macrophages/neutrophils), or CD11c (dendritic cells) (BD Biosciences, CA) antibodies. The FITC-conjugated, Alexa Fluor 488-conjugated (Invitrogen, CA) or horseradish peroxidase (HRP) conjugated secondary antibodies (DAKO, Denmark) were then applied to the sections. Hematoxylin or 4′,6-diamidino-2-phenylindole (DAKO) was used in the counter staining for nuclei.
Total cortical kidney RNA was extracted with TriZOL reagents (Invitrogen) from cortical tissue of the kidney. For first-strand cDNA synthesis, 1.5 μg of total RNA was used in a single-round reverse transcriptase reaction. The reaction mixture consisted of 0.9 μl of Oligo (dT) 12 to 18 primer, 1.0 mM deoxyribonucleotide triphosphate (dNTP), 1 μl first strand buffer, 0.4 mM dithiothreitol, 80 U of RNaseout recombinant ribonuclease inhibitor, and 300 U of superscript II RNase H (Invitrogen). Real-time PCR was performed on an ABI Prism 7700 Sequence Detection System (Applied Biosystems, CA). […]

NLRP3 = experiment: AcP-IgAN model: renal NLRP3 mRNA and protein; assay type: in vivo, B cell-deficient mice; details: AcP-IgAN mice
Method: as §1
Total cortical kidney RNA was extracted with TriZOL reagents (Invitrogen) from cortical tissue of the kidney. For first-strand cDNA synthesis, 1.5 μg of total RNA was used in a single-round reverse transcriptase reaction. The reaction mixture consisted of 0.9 μl of Oligo (dT) 12 to 18 primer, 1.0 mM deoxyribonucleotide triphosphate (dNTP), 1 μl first strand buffer, 0.4 mM dithiothreitol, 80 U of RNaseout recombinant ribonuclease inhibitor, and 300 U of superscript II RNase H (Invitrogen). Real-time PCR was performed on an ABI Prism 7700 Sequence Detection System (Applied Biosystems, CA). All of the probes and primers were Assays-on-Demand Gene expression products (Applied Biosystems). Real-time PCR reactions were using 10 μl of cDNA, 12.5 μl of TaqMan Universal PCR Master Mix (Applied Biosystems), and 1.25 μl of the specific probe/primer mixed in a total volume of 25 μl. The thermal cycler conditions were as follows: 2 min at 50° C., 10 min at 95° C., 40 cycles of denaturation (15 s at 95° C.), and combined annealing/extension (1 min at 60° C.).
Each protein sample was run on a 10% SDS-PAGE gel. […] The membrane-bound antibody detected was incubated with chemiluminescent reagent plus (PerkinElmer Life Sciences, MA) and captured on x-ray film.

[3] = day 28, vs control AcP-IgAN mice

In the case of `COC1=C(OC)[C@H](O)[C@H](C/C=C(\C)CC/C=C(\C)CCC=C(C)C)[C@@H](C)C1=O` [Compound 1, Antroquinonol], the “protein levels of NAD(P)H oxidase subunit p47^phox in kidney (increase in FSGS)” value [1] is reported as “abolished”, the renal histopathology ([2]; day 3, vs control AcP-IgAN mice) is reported as “significantly inhibited” and the “renal lesions (proliferation, crescents, sclerosis, peri-glomerular leukocyte infiltration, tubular atrophy; except glomerular immune deposits)” value [2, 3] is reported as “substantially inhibited”. The “renal mRNA levels of TGF-β1” value (TGF-β1; day 3) was “basal mRNA levels”, the “TGF-beta protein levels in kidney (IHC)” value (TGF-β1; [3]) was “substantially inhibited” and the “renal mRNA expression of TGF-β1” value (TGF-β1; [3]) was “greatly inhibited”. For the same compound, the “protein levels of NLRP3 in the kidney (increase)” value (NLRP3; both day 3 and day 28, vs AcP-IgAN mice) was “significantly inhibited”, the “renal NLRP3 mRNA expression levels” value (NLRP3; day 3) was “no effects” and the “renal mRNA levels of NLRP3” value (NLRP3; [3]) was “substantially reduced”.
